Experiment: DPPH-free radical scavenging
Format: biochemical
Conditions: ascorbic acid 100 μg/mL, positive control group
Description: 1% of the oral disintegrating film (Example 1-1), the oral mucosal adhesive film (Example 3-1), and the stick jelly (Example 4-1) were homogeneously dissolved, and centrifuged at 10,000 rpm and at 4° C. for 5 minutes to prepare a CFE (cell-free extract). 3.0 mL of a […] (DPPH) solution (5 mg/100 mL ethanol) was mixed with 500 μL of the prepared CFE, and the same amount of ethanol, MRS solution, and ascorbic acid (100 μg/mL) were used as a control group, a blank, and a comparative group, respectively. Then, the result was mixed with the DPPH solution and incubated in a dark room for 30 minutes, absorbance at 517 nm was measured, and the antioxidant activity was converted into % using Equation 1 below. [formula]

**Q.** Which “DPPH-free radical scavenging (%)” value does the source give for `O=C1O[C@H]([C@@H](O)CO)C(O)=C1O` [ascorbic acid] here?
**A.** 90%

Reference: US12544417B2, “Oral film and stick jelly for improving absorption in the oral mucosa, antioxidant activity, anti-inflammatory activity, and liver function of humans and companion animals” (ESTHER FORMULA CO., LTD., priority 2022, dated 2026)
